From US9028845B2, “Chimeric immunomodulatory compounds and methods of using the same-IV” (Dynavax Technologies Corporation, priority 2001, dated 2015)

Tests used:
human PBMCs = test: Human PBMC cytokine response assay (IFN-γ and IFN-α in cell-free medium by ELISA), with or without cPLGA; format: cell-based; conditions: for IFN-γ (pg/ml) 28065: donor 28065 (high background), 1000 = outside assay limits; for IFN-γ (pg/ml) 28065 / IFN-α (pg/ml) 28065 / IFN-α (pg/ml) 28066 / IFN-γ (pg/ml) 28066 / IFN-α (pg/ml) 28067 / IFN-γ (pg/ml) 28067 / IFN-α (pg/ml) 28068 / IFN-γ (pg/ml) 28068 / IFN-α (pg/ml) mean / IFN-γ (pg/ml) mean: 20 ug/ml, 24 h, + PLGA = premixed with 100 μg/ml cPLGA; for IFN-α (pg/ml) 28065: donor 28065; for IFN-α (pg/ml) 28066 / IFN-γ (pg/ml) 28066: donor 28066; for IFN-α (pg/ml) 28067 / IFN-γ (pg/ml) 28067: donor 28067; for IFN-α (pg/ml) 28068 / IFN-γ (pg/ml) 28068: donor 28068; for IFN-α (pg/ml) mean / IFN-γ (pg/ml) mean: mean of donors 28065-28068; for immunomodulatory activity (IFN-γ / IFN-α secretion), in words: used alone (no cPLGA);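 for IFN-α (pg/ml) mean: 20 µg/mL compound for 24 hours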;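 for IFN-γ (pg/ml) mean: 20 µg/mL compound for 24 hours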
PBMCs = test: Human PBMC proliferation assay (3H-thymidine incorporation); format: cell-based; conditions: Experiment A; for mean cpm: 2 μg/ml; for mean of both: mean of Donors 146 and 147, 2 μg/ml
CD19+ B cells = test: Human B cell proliferation assay (3H-thymidine incorporation); conditions: 2 μg/ml; for B cell proliferation, in words: 48 h plus 8 h 3H-thymidine pulse; for cpm1 / cpm2 / cpm3 / mean cpm / mean of both: B cells, Experiment A; for mean of both: mean of Donors 146 and 147
[1] = Table 24, mean of donors 28234-28237
[2] = Table 25, mean of donors 28250-28253
[3] = mean of donors 28185-28188, Table 15

5′-TCGTCGA-3′-HEG-5′-TCGTCGA-3′-HEG-5′-TCGTCGA-3′ [Compound C-21]
IFN-α (human PBMCs; Table 9, donor 28089): 56 pg/mL
IFN-γ (human PBMCs; Table 9, donor 28089): 61 pg/mL
IFN-α (human PBMCs; Table 9, donor 28090): 157 pg/mL
IFN-γ (human PBMCs; Table 9, donor 28090): 68 pg/mL
IFN-α (human PBMCs; Table 9, donor 28098): 286 pg/mL
IFN-γ (human PBMCs; Table 9, donor 28098): 218 pg/mL
IFN-α (human PBMCs; Table 9, donor 28099): 466 pg/mL
IFN-γ (human PBMCs; Table 9, donor 28099): 124 pg/mL
IFN-α mean (human PBMCs; Table 9, mean of donors): 241 pg/mL
IFN-γ mean (human PBMCs; Table 9, mean of donors): 118 pg/mL
IFN-α (human PBMCs; Table 10, donor 28042): 57 pg/mL
IFN-γ (human PBMCs; Table 10, donor 28042): 790 pg/mL
IFN-α (human PBMCs; Table 10, donor 28043): 72 pg/mL
IFN-γ (human PBMCs; Table 10, donor 28043): 1519 pg/mL
IFN-α (human PBMCs; Table 10, donor 28044): 79 pg/mL
IFN-γ (human PBMCs; Table 10, donor 28044): 1198 pg/mL
IFN-α (human PBMCs; Table 10, donor 28045): 15 pg/mL
IFN-γ (human PBMCs; Table 10, donor 28045): 177 pg/mL
IFN-α mean (human PBMCs; Table 10, mean of donors): 56 pg/mL
IFN-γ mean (human PBMCs; Table 10, mean of donors): 921 pg/mL
IFN-α (human PBMCs; Table 11, donor 28042): 146 pg/mL
IFN-γ (human PBMCs; Table 11, donor 28042): 572 pg/mL
IFN-α (human PBMCs; Table 11, donor 28043): 94 pg/mL
IFN-γ (human PBMCs; Table 11, donor 28043): 460 pg/mL
IFN-α (human PBMCs; Table 11, donor 28044): 191 pg/mL
IFN-γ (human PBMCs; Table 11, donor 28044): 4000 pg/mL
IFN-α (human PBMCs; Table 11, donor 28045): 349 pg/mL
IFN-γ (human PBMCs; Table 11, donor 28045): 1644 pg/mL
IFN-α mean (human PBMCs; Table 11, mean of donors): 195 pg/mL
IFN-γ mean (human PBMCs; Table 11, mean of donors): 1669 pg/mL
IFN-α (human PBMCs; Table 24, donor 28234): 16 pg/mL
IFN-γ (human PBMCs; Table 24, donor 28234): 4 pg/mL
IFN-α (human PBMCs; Table 24, donor 28235): 16 pg/mL
IFN-γ (human PBMCs; Table 24, donor 28235): 107 pg/mL
IFN-α (human PBMCs; Table 24, donor 28236): 73 pg/mL
IFN-γ (human PBMCs; Table 24, donor 28236): 308 pg/mL
IFN-α (human PBMCs; Table 24, donor 28237): 678 pg/mL
IFN-γ (human PBMCs; Table 24, donor 28237): 1645 pg/mL
IFN-α mean (human PBMCs; [1]): 196 pg/mL
IFN-γ mean (human PBMCs; [1]): 516 pg/mL
IFN-a (human PBMCs; Table 25, donor 28250): 31 pg/mL
IFN-g (human PBMCs; Table 25, donor 28250, polynucleotides/spacers at amounts equivalent to the CIC, spacers alone 9 uM): 122 pg/mL
IFN-a (human PBMCs; Table 25, donor 28251): 69 pg/mL
IFN-g (human PBMCs; Table 25, donor 28251): 51 pg/mL
IFN-a (human PBMCs; Table 25, donor 28252): 41 pg/mL
IFN-g (human PBMCs; Table 25, donor 28252): 155 pg/mL
IFN-a (human PBMCs; Table 25, donor 28253): 264 pg/mL
IFN-g (human PBMCs; Table 25, donor 28253): 203 pg/mL
IFN-a mean (human PBMCs; [2]): 101 pg/mL
IFN-g mean (human PBMCs; [2]): 133 pg/mL
IFN-γ (pg/ml) 28065 (human PBMCs): 653 pg/mL
IFN-α (pg/ml) 28065 (human PBMCs): 227 pg/mL
IFN-α (pg/ml) 28066 (human PBMCs): 24 pg/mL
IFN-γ (pg/ml) 28066 (human PBMCs): 16 pg/mL
IFN-α (pg/ml) 28067 (human PBMCs): 183 pg/mL
IFN-γ (pg/ml) 28067 (human PBMCs): 24 pg/mL
IFN-α (pg/ml) 28068 (human PBMCs): 769 pg/mL
IFN-γ (pg/ml) 28068 (human PBMCs): 960 pg/mL
IFN-a (human PBMCs; donor 28185, Table 15): 443 pg/mL
IFN-g (human PBMCs; donor 28185, Table 15): 244 pg/mL
IFN-a (human PBMCs; donor 28186, Table 15): 64 pg/mL
IFN-g (human PBMCs; donor 28186, Table 15): 37 pg/mL
IFN-a (human PBMCs; donor 28187, Table 15): 1 pg/mL
IFN-g (human PBMCs; donor 28187, Table 15): 125 pg/mL
IFN-a (human PBMCs; donor 28188, Table 15): 4 pg/mL
IFN-g (human PBMCs; donor 28188, Table 15): 7 pg/mL
IFN-α (pg/ml) mean (human PBMCs): 300 pg/mL
IFN-γ (pg/ml) mean (human PBMCs): 413 pg/mL
IFN-a (pg/ml) mean (human PBMCs; [3]): 128 pg/mL
IFN-g (pg/ml) mean (human PBMCs; [3]): 103 pg/mL
IFN-a (pg/ml) ×2 (human PBMCs; mean ×2, Table 15): 256 pg/mL
IFN-g (pg/ml) ×4 (human PBMCs; mean ×4, Table 15): 413 pg/mL
immunomodulatory activity (IFN-γ / IFN-α secretion), in words (human PBMCs): more active than other CG-containing CICs
cpm1 (PBMCs; Donor 146, 2 μg/ml): 30338 cpm
cpm2 (PBMCs; Donor 146, 2 μg/ml): 22685 cpm
cpm3 (PBMCs; Donor 146, 2 μg/ml): 22383 cpm
mean cpm (PBMCs; Donor 146 mean): 25135 cpm
cpm1 (PBMCs; Donor 147, 2 μg/ml): 28819 cpm
cpm2 (PBMCs; Donor 147, 2 μg/ml): 530 cpm
cpm3 (PBMCs; Donor 147, 2 μg/ml): 37088 cpm
mean cpm (PBMCs; Donor 147 mean): 22146 cpm
mean of both (PBMCs): 23641 cpm
B cell proliferation, in words (CD19+ B cells): cause B cells to proliferate
cpm1 (CD19+ B cells; Donor 146): 28467 cpm
cpm2 (CD19+ B cells; Donor 146): 16074 cpm
cpm3 (CD19+ B cells; Donor 146): 19258 cpm
mean cpm (CD19+ B cells; Donor 146 mean): 21266 cpm
cpm1 (CD19+ B cells; Donor 147): 17604 cpm
cpm2 (CD19+ B cells; Donor 147): 18851 cpm
cpm3 (CD19+ B cells; Donor 147): 19887 cpm
mean cpm (CD19+ B cells; Donor 147 mean): 18781 cpm
mean of both (CD19+ B cells): 20024 cpm

5′-TGCTGC-3′-HEG-5′-AGCTTGC-3′-HEG-5′-AGATGAT-3′ [Compound M-1, reference compound]
IFN-α (human PBMCs; Table 10, donor 28042): 0 pg/mL
IFN-γ (human PBMCs; Table 10, donor 28042): 45 pg/mL
IFN-α (human PBMCs; Table 10, donor 28043): 0 pg/mL
IFN-γ (human PBMCs; Table 10, donor 28043): 29 pg/mL
IFN-α (human PBMCs; Table 10, donor 28044): 13 pg/mL
IFN-γ (human PBMCs; Table 10, donor 28044): 7 pg/mL
IFN-α (human PBMCs; Table 10, donor 28045): 2 pg/mL
IFN-γ (human PBMCs; Table 10, donor 28045): 3 pg/mL
IFN-α mean (human PBMCs; Table 10, mean of donors): 4 pg/mL
IFN-γ mean (human PBMCs; Table 10, mean of donors): 21 pg/mL
IFN-γ (pg/ml) 28065 (human PBMCs): 157 pg/mL
IFN-α (pg/ml) 28065 (human PBMCs): 0 pg/mL
IFN-α (pg/ml) 28066 (human PBMCs): 0 pg/mL
IFN-γ (pg/ml) 28066 (human PBMCs): 1 pg/mL
IFN-α (pg/ml) 28067 (human PBMCs): 3 pg/mL
IFN-γ (pg/ml) 28067 (human PBMCs): 40 pg/mL
IFN-α (pg/ml) 28068 (human PBMCs): 0 pg/mL
IFN-γ (pg/ml) 28068 (human PBMCs): 2 pg/mL
IFN-α (pg/ml) mean (human PBMCs): 1 pg/mL
IFN-γ (pg/ml) mean (human PBMCs): 50 pg/mL
immunomodulatory activity (IFN-γ / IFN-α secretion), in words (human PBMCs): did not show activity
cpm1 (PBMCs; Donor 146, 2 μg/ml): 8753 cpm
cpm2 (PBMCs; Donor 146, 2 μg/ml): 5203 cpm
cpm3 (PBMCs; Donor 146, 2 μg/ml): 4496 cpm
mean cpm (PBMCs; Donor 146 mean): 6151 cpm
cpm1 (PBMCs; Donor 147, 2 μg/ml): 1034 cpm
cpm2 (PBMCs; Donor 147, 2 μg/ml): 3298 cpm
cpm3 (PBMCs; Donor 147, 2 μg/ml): 1674 cpm
mean cpm (PBMCs; Donor 147 mean): 2002 cpm
mean of both (PBMCs): 4076 cpm
B cell proliferation, in words (CD19+ B cells): little to no B cell proliferation
cpm1 (CD19+ B cells; Donor 146): 1514 cpm
cpm2 (CD19+ B cells; Donor 146): 2815 cpm
cpm3 (CD19+ B cells; Donor 146): 1173 cpm
mean cpm (CD19+ B cells; Donor 146 mean): 1834 cpm
cpm1 (CD19+ B cells; Donor 147): 1679 cpm
cpm2 (CD19+ B cells; Donor 147): 1667 cpm
cpm3 (CD19+ B cells; Donor 147): 1436 cpm
mean cpm (CD19+ B cells; Donor 147 mean): 1594 cpm
mean of both (CD19+ B cells): 1714 cpm
